Test results from patent US8404720B2, “Aryl sulfonamide amine compounds and their use as 5-HT6 ligands” (Suven Life Sciences Limited, priority 2008, dated 2013).

Key:
rats = assay: Water Maze (scopolamine induced reversal); format: in vivo; conditions: p.o.
Procedure: The water maze apparatus consisted of a circular pool (1.8 m diameter, 0.6 m high) constructed in black Perspex (TSE systems, Germany) filled with water (24±2° C.) and positioned underneath a wide-angled video camera to track animal. The 10 cm^2 perspex platform, lying 1 cm below the water surface, was placed in the centre of one of the four imaginary quadrants, which remained constant for all rats. The black Perspex used in the construction of the maze and platform offered no intramaze cues to guide escape behavior. By contrast, the training room offered several strong extramaze visual cues to aid the formation of the spatial map necessary for escape learning. An automated tracking system, [Videomot 2 (5.51), TSE systems, Germany] was employed. This program analyzes video images acquired via a digital camera and an image acquisition boards that determined path length, swim speed and the number of entries and duration of swim time spent in each quadrant of the water maze.

Male Wister rats = assay: Object Recognition Task Model; format: in vivo; conditions: rat, 3 mg/kg p.o.; for Exploration time mean ± S.E.M (sec), first value column / Exploration time mean ± S.E.M (sec), second value column: choice trial T2; for Exploration time mean ± S.E.M (sec), first value column: first of two columns (sub-head not printed, presumably familiar object); for Exploration time mean ± S.E.M (sec), second value column: second of two columns (sub-head not printed, presumably novel object); for Inference: object recognition task
Procedure: The cognition-enhancing properties of compounds of this invention were estimated using a model of animal cognition: the object recognition task model.
Male Wister rats (230-280 grams) obtained from N. I. N. (National Institute of Nutrition, Hyderabad, India) was used as experimental animals. Four animals were housed in each cage. Animals were kept on 20% food deprivation before one day and given water ad libitum throughout the experiment and maintained on a 12 hours light/dark cycle. Also the rats were habituated to individual arenas for 1 hour in the absence of any objects.
One group of 12 rats received vehicle (1 mL/Kg) orally and another set of animals received compound of the formula (I) either orally or i.p., before one hour of the familiar (T1) and choice trial (T2).
The experiment was carried out in a 50×50×50 cm open field made up of acrylic. In the familiarization phase, (T1), the rats were placed individually in the open field for 3 minutes, in which two identical objects (plastic bottles, 12.5 cm height×5.5 cm diameter) covered in yellow masking tape alone (a1 and a2) were positioned in two adjacent corners, 10 cm. from the walls. After 24 hours of the (T1) trial for long-term memory test, the same rats were placed in the same arena as they were placed in T1 trial. Choice phase (T2) rats were allowed to explore the open field for 3 minutes in presence of one familiar object (a3) and one novel object (b) (Amber color glass bottle, 12 cm high and 5 cm in diameter). Familiar objects presented similar textures, colors and sizes. During the T1 and T2 trial, explorations of each object (defined as sniffing, licking, chewing or having moving vibrissae whilst directing the nose towards the object at a distance of less than 1 cm) were recorded separately by stopwatch. Sitting on an object was not regarded as exploratory activity, however, it was rarely observed.
T1 is the total time spent exploring the familiar objects (a1+a2).
T2 is the total time spent exploring the familiar object and novel object (a3+b).
The object recognition test was performed as described by Ennaceur, A., Delacour, J., A new one-trial test for neurobiological studies of memory in rats—Behavioural data, Behay. Brain Res., 1988, 31, 47-59.

Human 5-HT6 Receptor = Human 5-HT6 Receptor (Homo sapiens, UniProt P50406); assay: Binding Assay for Human 5-HT6 Receptor ([3H]LSD radioligand); conditions: [3H]LSD 1.5 nM, human recombinant receptor in HEK293 cells; for % Inhibition at 10 nM: 10 nM test compound; for % Inhibition at 100 nM: 100 nM test compound; for % Inhibition at 1000 nM: 1000 nM test compound
Sequence of Human 5-HT6 Receptor (P50406 whole entry): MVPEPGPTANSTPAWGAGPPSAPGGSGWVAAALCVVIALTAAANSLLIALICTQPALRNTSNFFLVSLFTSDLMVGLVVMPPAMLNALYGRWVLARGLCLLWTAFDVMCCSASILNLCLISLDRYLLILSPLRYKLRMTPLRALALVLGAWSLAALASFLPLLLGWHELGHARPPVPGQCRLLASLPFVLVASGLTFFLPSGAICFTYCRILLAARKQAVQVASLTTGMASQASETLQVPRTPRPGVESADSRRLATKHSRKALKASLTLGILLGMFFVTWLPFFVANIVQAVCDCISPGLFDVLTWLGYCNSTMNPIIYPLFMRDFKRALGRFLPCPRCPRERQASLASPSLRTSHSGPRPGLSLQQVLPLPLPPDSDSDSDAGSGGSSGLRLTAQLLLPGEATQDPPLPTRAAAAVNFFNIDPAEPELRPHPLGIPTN
Procedure: Receptor source: Human recombinant expressed in HEK293 cells
Radioligand: [^3H]LSD (60-80 Ci/mmol)
Final ligand concentration— [1.5 nM]
Non-specific determinant: Methiothepin mesylate— [0.1 μM]
Reference compound: Methiothepin mesylate
Positive control: Methiothepin mesylate
Reactions were carried out in 50 μM TRIS-HCl (pH 7.4) containing 10 μM MgCl2, 0.5 mM EDTA for 60 minutes at 37° C. The reaction was terminated by rapid vacuum filtration onto glass fiber filters. Radioactivity trapped onto the filters was determined and compared to control values in order to ascertain any interactions of test compound(s) with the cloned serotonin 5-HT6 binding site.

[1] = Rodent Pharmacokinetic Study; format: in vivo, Male wistar rats; conditions: Wistar/Male rat; for AUCt / T1/2 / Tmax / Cmax: 50% PEG-400 in water for injection; for Cmax: plasma; for Bioavailability: oral 10 mg/kg versus intravenous
Procedure: Male wistar rats (230-280 grams) obtained from NIN (National Institute of Nutrition, Hyderabad, India) were used as an experimental animal.
Three to five animals were housed in each cage. Animals were kept fasted over night and maintained on a 12 hours light/dark cycle. […]
At each time point blood was collected by jugular vein. Plasma was stored frozen at −20° C. until analysis. The concentrations of the NCE compound in plasma were determined using LC-MS/MS method.
Schedule time points: Pre dose. 0.25, 0.5, 1, 1.5, 2, 3, 4, 6, 8, 10, 12 and 24 hours after dosing (n=3). The NCE compounds were quantified in plasma by validated LC-MS/MS method using solid phase extraction technique. NCE compounds were quantified in the calibration range of 2-2000 ng/mL in plasma. Study samples were analyzed using calibration samples in the batch and quality control samples spread across the batch.
Pharmacokinetic parameters Cmax, Tmax, AUCt, AUCinf, half life, volume of distribution, clearance, mean residence time and thereby oral bioavailability were calculated by non-compartmental model using software WinNonlin version 5.1.

[2] = Rodent Brain Penetration Study; format: in vivo, Male Wister rats; conditions: Wistar/Male rat, Intravenous infusion, 1 mg/kg, brain/plasma
Procedure: Male Wister rats (230-280 grams) obtained from NIN (National Institute of Nutrition, Hyderabad, India) was used as an experimental animal. Three animals were housed in each cage. Animals were given water and food ad libitum throughout the experiment, and maintained on a 12 hours light/dark cycle.
Brain penetration was determined at steady state in rat. One day prior to dosing day, male wistar rats (225-250 grams) were anesthetized with halothane for surgical placement of jugular and femoral vein catheters. After surgery, the rats were housed in individual rat infusion cage connected with infusion components (Instech Solomon; Plymouth Meeting, Pa. USA) and allowed free access to food and water
NCE compound was dissolved in water and administered at a constant infusion rate (5 mL/kg/hr) over 6-10 hours at a target dose rate of 1.0 mg free base/kg/h. Blood samples were removed during the latter part of the infusion to confirm steady-state blood concentrations, brain and blood was collected and estimated. Animals will be sacrificed to collect the plasma and brain tissue and was homogenized. Plasma and Brain was stored frozen at −20° C. until analysis. The concentrations of the NCE compound in plasma and Brain were determined using LC-MS/MS method.
The NCE compounds were quantified in plasma and brain homogenate by validated LC-MS/MS method using solid phase extraction technique. NCE compounds were quantified in the calibration range of 1-500 ng/mL in plasma and brain homogenate. Study samples were analyzed using calibration samples in the batch and quality control samples spread across the batch. Extents of brain-blood ratio were calculated (Cb/Cp).

Compound: COc1ccc(NS(=O)(=O)c2ccc(F)cc2)cc1NC1CCN(C)CC1 [Example 6, 4-Fluoro-N-[4-Methoxy-3-(1-methylpiperidin-4-ylamino)phenyl] benzenesulfonamide]
- Scopolamine Induced Reversal (rats): ≦3 mg/kg, p.o.
- Exploration time mean ± S.E.M (sec), first value column (Male Wister rats): 10.02 ± 1.54 s
- Exploration time mean ± S.E.M (sec), second value column (Male Wister rats): 15.27 ± 1.32 s
- Inference (Male Wister rats): Active
- % Inhibition at 10 nM (Human 5-HT6 Receptor): 20.71%
- % Inhibition at 100 nM (Human 5-HT6 Receptor): 90.83%
- % Inhibition at 1000 nM (Human 5-HT6 Receptor): 99.64%
- AUCt ([1]; Intravenous, 10 mg/kg): 4314 ± 967 ng·h/mL
- T1/2 ([1]; Intravenous, 10 mg/kg): 2.18 ± 1.29 h
- Tmax ([1]; Intravenous, 10 mg/kg): 8.4 ± 6 min
- Cmax ([1]; Intravenous, 10 mg/kg): 2885 ± 401 ng/mL
- AUCt ([1]; Oral, 10 mg/kg): 1421 ± 106 ng·h/mL
- T1/2 ([1]; Oral, 10 mg/kg): 5.35 ± 3.65 h
- Tmax ([1]; Oral, 10 mg/kg): 130 ± 86.4 min
- Cmax ([1]; Oral, 10 mg/kg): 372 ± 85 ng/mL
- Bioavailability [1]: 34%
- Steady State Brain Penetration (Cb/Cp) [2]: 0.05 ± 0.01

Compound: COc1ccc(NS(=O)(=O)c2ccccc2Br)cc1NC1CCN(C)CC1 [Example 8, 2-Bromo-N-[4-Methoxy-3-(1-methylpiperidin-4-ylamino)phenyl] benzenesulfonamide]
- Scopolamine Induced Reversal (rats): ≦3 mg/kg, p.o.
- Exploration time mean ± S.E.M (sec), first value column (Male Wister rats): 6.72 ± 1.95 s
- Exploration time mean ± S.E.M (sec), second value column (Male Wister rats): 9.58 ± 2.26 s
- Inference (Male Wister rats): Active
- % Inhibition at 10 nM (Human 5-HT6 Receptor): 71.95%
- % Inhibition at 100 nM (Human 5-HT6 Receptor): 99.38%
- % Inhibition at 1000 nM (Human 5-HT6 Receptor): 100.63%
- AUCt ([1]; Intravenous, 10 mg/kg): 9919 ± 701 ng·h/mL
- T1/2 ([1]; Intravenous, 10 mg/kg): 2.18 ± 0.54 h
- Tmax ([1]; Intravenous, 10 mg/kg): 4.8 ± 0 min
- Cmax ([1]; Intravenous, 10 mg/kg): 2645 ± 154 ng/mL
- AUCt ([1]; Oral, 10 mg/kg): 6222 ± 1025 ng·h/mL
- T1/2 ([1]; Oral, 10 mg/kg): 5.40 ± 2.56 h
- Tmax ([1]; Oral, 10 mg/kg): 100 ± 69 min
- Cmax ([1]; Oral, 10 mg/kg): 964 ± 110 ng/mL
- Bioavailability [1]: 63%
- Steady State Brain Penetration (Cb/Cp) [2]: 0.04 ± 0.01

Compound: COc1ccc(NS(=O)(=O)c2ccccc2Br)cc1N(C)C1CCN(C)CC1
- melting point: 119.2 to 121.3 °C

Compound: COc1ccc(NS(=O)(=O)c2ccc(C)cc2)cc1NC1CCN(C)CC1 [Example 10, 4-Methyl-N-[4-Methoxy-3-(1-methylpiperidin-4-ylamino)phenyl] benzenesulfonamide]
- % Inhibition at 100 nM (Human 5-HT6 Receptor): 88.26%
- % Inhibition at 1000 nM (Human 5-HT6 Receptor): 99.2%

Compound: CN1CCC(Nc2cccc(NS(=O)(=O)c3ccccc3Br)c2)CC1 [Example 11, 2-Bromo-N-[3-(1-methylpiperidin-4-ylamino)phenyl] benzenesulfonamide]
- % Inhibition at 10 nM (Human 5-HT6 Receptor): 8.56%
- % Inhibition at 100 nM (Human 5-HT6 Receptor): 64.11%
- % Inhibition at 1000 nM (Human 5-HT6 Receptor): 94.73%

Compound: CN1CCC(Nc2cc(NS(=O)(=O)c3ccccc3Br)ccc2Cl)CC1 [Example 5, 2-Bromo-N-[4-Chloro-3-(1-methylpiperidin-4-ylamino)phenyl] benzenesulfonamide]
- % Inhibition at 100 nM (Human 5-HT6 Receptor): 93.8%
- % Inhibition at 1000 nM (Human 5-HT6 Receptor): 101.6%

Compound: CN1CCC(Nc2cccc(NS(=O)(=O)c3ccc(F)cc3)c2)CC1 [Example 13, 4-Fluoro-N-[3-(1-methylpiperidin-4-ylamino)phenyl] benzenesulfonamide]
- % Inhibition at 100 nM (Human 5-HT6 Receptor): 34.95%
- % Inhibition at 1000 nM (Human 5-HT6 Receptor): 71.2%

Compound: Cc1ccc(NS(=O)(=O)c2ccc(F)cc2)cc1NC1CCN(C)CC1 [Example 17, 4-Fluoro-N-[4-Methyl-3-(1-Methylpiperidin-4-ylamino)phenyl] benzenesulfonamide]
- % Inhibition at 100 nM (Human 5-HT6 Receptor): 64.27%
- % Inhibition at 1000 nM (Human 5-HT6 Receptor): 93.00%

Compound: Cc1ccc(S(=O)(=O)Nc2ccc(Cl)c(NC3CCN(C)CC3)c2)cc1 [Example 3, 4-Methyl-N-[4-Chloro-3-(1-methylpiperidin-4-ylamino)phenyl] benzenesulfonamide]
- % Inhibition at 100 nM (Human 5-HT6 Receptor): 78.66%
- % Inhibition at 1000 nM (Human 5-HT6 Receptor): 98.42%

Compound: Cc1ccc(S(=O)(=O)Nc2ccc(C)c(NC3CCN(C)CC3)c2)cc1 [Example 18, 4-Methyl-N-[4-Methyl-3-(1-Methylpiperidin-4-ylamino)phenyl] benzenesulfonamide]
- % Inhibition at 100 nM (Human 5-HT6 Receptor): 63.42%
- % Inhibition at 1000 nM (Human 5-HT6 Receptor): 92.37%

Compound: CN1CCC(Nc2cc(NS(=O)(=O)c3ccc(F)cc3)ccc2Cl)CC1 [Example 2, 4-Fluoro-N-[4-Chloro-3-(1-methylpiperidin-4-ylamino)phenyl] benzenesulfonamide]
- % Inhibition at 100 nM (Human 5-HT6 Receptor): 69.45%
- % Inhibition at 1000 nM (Human 5-HT6 Receptor): 96.73%

Compound: Cc1ccc(NS(=O)(=O)c2ccccc2Br)cc1NC1CCN(C)CC1 [Example 15, 2-Bromo-N-[4-Methyl-3-(1-methylpiperidin-4-ylamino)phenyl] benzenesulfonamide]
- Scopolamine Induced Reversal (rats): ≦3 mg/kg, p.o.
- Exploration time mean ± S.E.M (sec), first value column (Male Wister rats): 6.89 ± 1.54 s
- Exploration time mean ± S.E.M (sec), second value column (Male Wister rats): 13.26 ± 2.80 s
- Inference (Male Wister rats): Active
- % Inhibition at 100 nM (Human 5-HT6 Receptor): 99.44%
- % Inhibition at 1000 nM (Human 5-HT6 Receptor): 104.28%
- AUCt ([1]; Intravenous, 5 mg/kg): 1231 ± 52 ng·h/mL
- T1/2 ([1]; Intravenous, 5 mg/kg): 3.08 ± 2.11 h
- Tmax ([1]; Intravenous, 5 mg/kg): 4.8 ± 0 min
- Cmax ([1]; Intravenous, 5 mg/kg): 727 ± 18 ng/mL
- AUCt ([1]; Oral, 10 mg/kg): 2462 ± 901 ng·h/mL
- T1/2 ([1]; Oral, 10 mg/kg): 3.15 ± 2.99 h
- Tmax ([1]; Oral, 10 mg/kg): 140 ± 69 min
- Cmax ([1]; Oral, 10 mg/kg): 503 ± 263 ng/mL
- Bioavailability [1]: 99%
- Steady State Brain Penetration (Cb/Cp) [2]: 0.35 ± 0.08

Compound: Cc1ccc(S(=O)(=O)Nc2cccc(NC3CCN(C)CC3)c2)cc1 [Example 14, 4-Methyl-N-[3-(1-methylpiperidin-4-ylamino)phenyl] benzenesulfonamide]
- % Inhibition at 100 nM (Human 5-HT6 Receptor): 45.25%
- % Inhibition at 1000 nM (Human 5-HT6 Receptor): 80.78%
